Results: BigSolDB 2.1

O=P1(O)Oc2ccc3ccccc3c2-c2c(ccc3ccccc23)O1
solubility (mole fraction)
Details	288.15 K	293.15 K	298.15 K	303.15 K	308.15 K	313.15 K	318.15 K	323.15 K	328.15 K	333.15 K
in ethanol	0.00444	0.00462	0.00489	0.00511	0.00533	0.00544	0.00573	0.00601	0.00632	0.00664
in ethyl acetate	0.000286	0.000331	0.000387	0.000434	0.000491	0.000521	0.000555	0.000594	0.000618	0.000645
in isobutanol	0.0035	0.00381	0.0041	0.0045	0.00491	0.00531	0.00575	0.00622	0.00672	0.00738
in isopropanol	0.00339	0.00354	0.0038	0.00404	0.00445	0.00491	0.00563	0.00656	0.00763	0.00891
in methanol	0.00336	0.00347	0.00373	0.00411	0.00452	0.00486	0.0052	0.00555	0.00607	0.00658
in n-butanol	0.00698	0.00709	0.0073	0.00763	0.00802	0.00844	0.00887	0.00932	0.00996	0.0107
in n-propanol	0.00484	0.0053	0.00588	0.00652	0.00731	0.00832	0.00942	0.0106	0.0123	0.0142
